Data taken from patent US12172975B2, “1H-indazole carboxamides as receptor-interacting protein kinase 1 inhibitors (RIPK1)” (BRISTOL-MYERS SQUIBB COMPANY, priority 2018, dated 2024).
Where a name gives a salt, the structure may show the parent alone. Read-outs that look alike come from different tables or passages of the source.

System: MLKL phosphorylation in HT29-L23 human colorectal adenocarcinoma cells
Test: MLKL Phosphorylation High-Content Assay
Type: cell-based
Conditions: 6 h, necroptosis induced with TNFα, SMAC mimetic and Z-VAD, read-out: pMLKL (IC50)
Description: MLKL Phosphorylation High-Content Assay
HT29-L23 human colorectal adenocarcinoma cells were maintained in RPMI 1640 medium containing 10% heat-inactivated FBS, 1% Penicillin-Streptomycin and 10 mM HEPES. Cells were seeded at 2,000 cells/well in 384 well tissue culture-treated microplates (Greiner #781090-3B) and incubated at 37° C. (5% CO2/95% O2) for 2 d. […] (5% CO2/95% O2). Necroptopsis was induced using a mixture of human TNFα (35 ng/mL) (Peprotech #300-01A), SMAC mimetic (from US 2015/0322111 A1) (700 nM) and Z-VAD ([…]) (BD pharmingen #51-6936). Following 6 h incubation at 37° C. (5% CO2/95% O2), the cells were fixed with 4% formaldehyde (ACROS 11969-0010) for 15 min at rt, then permeabilized with phosphate buffered saline (PBS) containing 0.2% Triton-X-100 for 10 min. MLKL phosphorylation was detected using anti-MLKL (phospho S358) antibody (Abeam #ab 187091) (1:1000 dilution in Blocking Buffer [PBS supplemented with 0.1% BSA]) with ON incubation at 4° C. After washing three times in PBS, goat anti-rabbit Alexa-488 (1:1000 dilution) (Life Technologies, A11008) and Hoechst 33342 (Life Technologies, H3570) (1:2000 dilution) in Blocking Buffer were added for 1 h at rt.
Following another three cycles of washes in PBS, the microplates were sealed, and cellular images were acquired in the Cellomics ArrayScan VTI high-content imager equipped with an X1 camera. Fluorescent images were taken using a 10× objective and the 386-23 BGRFRN_BGRFRN and 485-20 BGRFRN_BGRFRN filter sets, for nuclei and MLKL phosphorylation, respectively. The image sets were analyzed using the Compartmental Analysis Bioapplication software (Cellomics). The level of MLKL phosphorylation was quantified as MEAN_CircRingAvglntenRatio. The maximal inhibitory response was defined by the activity induced by Neels (CAS #: 852391-15-2, 6.25 μM). […] The data were fitted using the 4-parameter logistic equation to calculate the IC50 and Ymax values.

Row | SMILES | IC50 (Homo sapiens) [nM] | IC50 [nM]
1 | [2H]C([2H])([2H])Oc1ncc(-c2ccc3c(C(=O)NC)n[nH]c3c2)cc1C(=O)NC(C)c1ccccc1OC(F)(F)F (single isomer, unassigned) [Example 15, 6-(6-methoxyd3-5-((1-(2-(trifluoromethoxy)phenyl)ethyl)carbamoyl)pyridin-3-yl)-N-methyl-1H-indazole-3-carboxamide] | 3.4 | –
2 | [2H]C([2H])([2H])Oc1ncc(-c2ccc3c(C(=O)NC)n[nH]c3c2)cc1C(=O)N[C@@H](c1cc(C(F)(F)F)ccc1F)C([2H])([2H])[2H] [Example 4, (R)-6-(5-((1-(2-fluoro-5-(trifluoromethyl)phenyl)ethyl-2,2,2-d3)carbamoyl)-6-(methoxy-d3)pyridin-3-yl)-N-methyl-1H-indazole-3-carboxamide, TFA] | 19 | –
3 | [2H]C([2H])([2H])NC(=O)c1n[nH]c2cc(-c3cnc(OC([2H])([2H])[2H])c(C(=O)N[C@@H](C)c4cc(OC(F)(F)F)ccc4F)c3)ccc12 [Example 5, (S)-6-(5-((1-(2-fluoro-5-(trifluoromethoxy)phenyl)ethyl)carbamoyl)-6-(methoxy-d3)pyridin-3-yl)-N-(methyl-d3)-1H-indazole-3-carboxamide] | 9 | –
4 | [2H]C([2H])([2H])Oc1ncc(-c2ccc3c(C(=O)NC)n[nH]c3c2)cc1C(=O)N[C@@H](c1cc(OC(F)(F)F)ccc1F)C([2H])([2H])[2H] [Example 9, (R)-6-(5-((1-(2-fluoro-5-(trifluoromethoxy)phenyl)ethyl-2,2,2-d3)carbamoyl)-6-(methoxy-d3)pyridin-3-yl)-N-methyl-1H-indazole-3-carboxamide, TFA] | 22 | –
5 | [2H]C([2H])([2H])Oc1ncc(-c2ccc3c(C(=O)NC)n[nH]c3c2)cc1C(=O)N[C@H](c1cc(OC(F)(F)F)ccc1F)C([2H])([2H])[2H] [Example 10, (S)-6-(5-((1-(2-fluoro-5-(trifluoromethoxy)phenyl)ethyl-2,2,2-d3)carbamoyl)-6-(methoxy-d3)pyridin-3-yl)-N-methyl-1H-indazole-3-carboxamide] | 6.4 | –
6 | [2H]C([2H])([2H])Oc1ncc(-c2ccc3c(C(=O)NC)n[nH]c3c2)cc1C(=O)N[C@@H](c1cccc(OC(F)(F)F)c1)C([2H])([2H])[2H] [Example 11, (R)-6-(6-(methoxy-d3)-5-((1-(3-(trifluoromethoxy)phenyl)ethyl-2,2,2-d3)carbamoyl)pyridin-3-yl)-N-methyl-1H-indazole-3-carboxamide, TFA] | 223 | –
7 | [2H]C([2H])([2H])Oc1ncc(-c2ccc3c(C(=O)NC)n[nH]c3c2)cc1C(=O)N[C@H](C)c1cccc(OC(F)(F)F)c1 [Example 14, (R)-6-(6-methoxyd3-5-((1-(3-(trifluoromethoxy)phenyl)ethyl)carbamoyl)pyridin-3-yl)-N-methyl-1H-indazole-3-carboxamide] | 37 | –
8 | [2H]C([2H])([2H])Oc1ncc(-c2ccc3c(C(=O)NC)n[nH]c3c2)cc1C(=O)N[C@@H](C)c1cccc(OC(F)(F)F)c1 [Example 25] | 190 | –
9 | [2H]C([2H])([2H])Oc1ncc(-c2ccc3c(C(=O)NC)n[nH]c3c2)cc1C(=O)N[C@H](C)CC(=O)OC(C)(C)C [Example 29, tert-butyl (3R)-3-{[2-(deutero)-methoxy-5-[3-(methylcarbam-oyl)-1H-indazol-6-yl]pyridin-3-yl]formamido}butanoate] | 76 | –
10 | [2H]C([2H])([2H])Oc1ncc(-c2ccc3c(C(=O)NC)n[nH]c3c2)cc1C(=O)N[C@H](C)c1cc(OC(F)(F)F)ccc1F [Example 30, 6-(5-{[(1R)-1-[2-fluoro-5-(tri-fluoromethoxy)phenyl]ethyl]-carbamoyl}-6-(deutero)methoxy-pyridin-3-yl)-N-methyl-1H-indazole-3-carboxamide] | 48 | –
11 | [2H]C([2H])([2H])Oc1ncc(-c2ccc3c(C(=O)NC)n[nH]c3c2)cc1C(=O)N[C@@H](C)c1cc(C(F)(F)F)ccc1F [Example 32, 6-(5-{[(1S)-1-[2-fluoro-5-(trifluoromethyl)phenyl]ethyl]-carbamoyl}-6-(deutero)meth-oxypyridin-3-yl)-N-methyl-1H-indazole-3-carboxamide] | 19 | –
12 | [2H]C([2H])([2H])Oc1ncc(-c2ccc3c(C(=O)NC)n[nH]c3c2)cc1C(=O)N[C@H](C)c1ccccc1C(F)(F)F [Example 33, 6-[6-(deutero)methoxy-5-{[(1R)-1-[2-(trifluoromethyl)phenyl]-ethyl]carbamoyl}pyridin-3-yl]-N-methyl-1H-indazole-3-carbox-amide] | 25 | –
13 | CNC(=O)c1n[nH]c2cc(-c3cnc(OC)c(C(=O)NCCC(O)c4ccc(OC)cc4)c3)ccc12 (stereo not drawn) [Example 38, 6-(5-{[3-hydroxy-3-(4-methoxy-phenyl)propyl]carbamoyl}-6-methoxypyridin-3-yl)-N-methyl-1H-indazole-3-carboxamide] | 13 | –
14 | CNC(=O)c1n[nH]c2cc(-c3cnc(OC)c(C(=O)NCCC(O)c4ccc(F)c(F)c4)c3)ccc12 (stereo not drawn) [Example 39, 6-(5-{[3-(3,4-difluorophenyl)-3-hydroxypropyl]carbamoyl}-6-methoxypyridin-3-yl)-N-methyl-1H-indazole-3-carboxamide] | 8 | –
15 | CNC(=O)c1n[nH]c2cc(-c3cnc(OC)c(C(=O)NCCC(O)c4ccc(F)cc4)c3)ccc12 (stereo not drawn) [Example 40, 6-(5-{[3-(4-fluorophenyl)-3-hydroxypropyl]carbamoyl}-6-methoxypyridin-3-yl)-N-methyl-1H-indazole-3-carboxamide] | 5.7 | –
16 | CNC(=O)c1n[nH]c2cc(-c3cnc(OC)c(C(=O)NCCC(C)c4ccc(F)cc4)c3)ccc12 (stereo not drawn) [Example 41, 6-(5-{[3-(4-fluorophenyl)-butyl]carbamoyl}-6-methoxy-pyridin-3-yl)-N-methyl-1H-indazole-3-carboxamide] | 0.6 | –
17 | CNC(=O)c1n[nH]c2cc(-c3cnc(OC)c(C(=O)NCC4CC4c4cccc(F)c4)c3)ccc12 (stereo not drawn) [Example 42, 6-[5-({[2-(3-fluorophenyl)cyclo-propyl]methyl}carbamoyl)-6-methoxypyridin-3-yl]-N-methyl-1H-indazole-3-carboxamide] | 88 | –
18 | CNC(=O)c1n[nH]c2cc(-c3cnc(OC)c(C(=O)NC[C@H]4C[C@@H]4c4ccc(F)cc4)c3)ccc12 [Example 43, 6-[5-({[(1S,2S)-2-(4-fluoro-phenyl)cyclopropyl]methyl}-carbamoyl)-6-methoxypyridin-3-yl]-N-methyl-1H-indazole-3-carboxamide] | – | 99
19 | CNC(=O)c1n[nH]c2cc(-c3cnc(OC)c(C(=O)N[C@@H]4C[C@H]4c4ccccc4)c3)ccc12 [Example 45, 6-(6-methoxy-5-{[(1R,2S)-2-phenylcyclopropyl]carbamoyl}-pyridin-3-yl)-N-methyl-1H-indazole-3-carboxamide] | 5 | –
20 | CNC(=O)c1n[nH]c2cc(-c3cnc(OC)c(C(=O)N[C@H]4C[C@@H]4c4ccccc4)c3)ccc12 [Example 46, 6-(6-methoxy-5-{[(1S,2R)-2-phenylcyclopropyl]carbamoyl}-pyridin-3-yl)-N-methyl-1H-indazole-3-carboxamide] | 4.4 | –
21 | CNC(=O)c1n[nH]c2cc(-c3cnc(OC)c(C(=O)NCCS(=O)(=O)Nc4ccccc4)c3)ccc12 [Example 47, 6-(6-methoxy-5-{[2-(phenyl-sulfamoyl)ethyl]carbamoyl}-pyridin-3-yl)-N-methyl-1H-indazole-3-carboxamide] | 38 | –
